Laboratory results: US9556153B1, “JAK1 inhibitors” (Eli Lilly and Company, priority 2015, dated 2017)

Assays:
JAK1 = JAK1 (Homo sapiens, UniProt P23458); experiment: JAK LanthaScreen Kinase Assay (TR-FRET), JAK1 in vitro enzyme assay; type: biochemical; conditions: ATP 20.0 μM; n=6
Excerpt: (§1) JAK1, JAK2 and JAK3 In Vitro Enzyme Assays
(§2) The JAK LanthaScreen™ Kinase Assay (Invitrogen) is used to determine the ability of test compounds to inhibit JAK1, JAK2 and JAK3 kinase activity. These are TR-FRET assay formats that use long-lifetime terbium labeled antibody as the donor species and GFP-STAT1 as the acceptor species. Use the TR-FRET ratio to monitor JAK kinase activity where an increase in phosphorylation of the GFP-STAT1 results in an increase in the TR-FRET ratio. Perform the kinase reaction using a 12.5 μl reaction volume in shallow black 384-well Proxiplate. Add reagents to obtain final reaction conditions of […] HEPES pH, 1.76 mM Triton X-100, ATP (20.0 μM for JAK1 and JAK3 or 5 μM for JAK2) enzyme assays, 10.0 mM MgCl2, 1 mM EGTA and 0.01% Brij-35, 0.05 mM GFP-STAT1, 14 nM JAK1 enzyme for JAK1, 1.0 nM for JAK2 or 2.5 nM for JAK3 enzyme assays, and 4% DMSO and serial dilutions of test compound (diluted 1:3 from 20,000 to 1 nM). Following ATP/GFP-STAT1 addition, centrifuge the assay plates for 1 minute at 1000 revolutions per minute (RPM). Allow the plates to incubate at RT for 60 minutes and then add 12.5 μl of a stopping buffer containing 20 mM EDTA, 2 nM Terbium-anti-phosphorylated Signal Transducers and Activators of Transcription [phosphorylation Tyrosine 701 amino acid] […]

HCC827 xenograft tumor = experiment: Efficacy Study in HCC827 Xenograft Tumor Model; type: in vivo, mouse; conditions: oral gavage, 28 days, HCC827 xenograft mice
Method: Efficacy Study in HCC827 Xenograft Tumor Model
The purpose of this assay is to measure the ability of compounds to inhibit tumor growth in the HCC827 xenograft mouse model. Grow HCC827 cells (ATCC# CRL-2868, Lot#59392891) according to ATCC specifications at the lowest possible passage number available. Culture cells and maintain in RPMI-1640 supplemented with 10% FBS and incubate at 37° C. in 5% CO2. Harvest cells from flasks using TryPLE, rinse twice in DPBS, resuspend in HBSS, and mix with BD Biosciences basement membrane matrix (MATRIGEL®) to cell suspension to achieve a 1:1 cell/matrix ratio yielding an inoculation volume of 0.2 ml cell/matrix suspension containing 5e^6 cells. Maintain cell suspensions on ice throughout the inoculation procedure and start implantations within one hour after cell culture harvest. Administer implantations subcutaneously in the right rear flank of female CB17 SCID mice obtained from Harlan (18-20 g). Feed mice Harlan Teklad Protein Extruded 2920X ad libitum and provide water with the rack watering system. Allow the implanted tumor cells to grow as a solid tumor and measure twice a week along with body weight beginning the seventh day after implantation. Determine tumor volumes using the calculation: 0.536*L*W^2. After tumor volume reaches approximately 150-200 mm^3, randomize animals and place into groups containing 5-8 animals each. Formulate the compounds in 1% HEC vehicle containing 0.25% Tween 80 and 0.05% antifoam with 1.1 molar equivalent of methanesulfonic acid to form an in situ salt (1.1 mL of 1N methanesulfonic acid per (insert molecular weight) mg of compound). Store test compound at RT. Formulate compounds once per week, and store at RT. […] Calculate doses based on the most recent group mean body weight. Administer compounds by oral gavage for 28 days either BID or QD depending on dosage.

JAK2 = JAK2 (Homo sapiens, UniProt O60674); experiment: JAK LanthaScreen Kinase Assay (TR-FRET), JAK2 in vitro enzyme assay; type: biochemical; design: purchased Invitrogen; conditions: ATP 5 μM; n=6
Excerpt: as §1, §2

[1] = system: Ba/F3 cells expressing human mtJAK1 (S729C); experiment: BaF3 Mutant JAK-1 (S729C) Clone 12 Proliferation Assay; type: cell-based, Murine; conditions: BaF3, 72 h; 3 day incubation, Cell Titer Glo; n=4
Method: BaF3 Mutant JAK-1 (S729C) Clone 12 Proliferation Assay
The purpose of this assay is to determine the inhibitory activity of JAK-1 specific inhibitors using the BaF3 mutant JAK-1 (S729C) Clone 12 proliferation assay.
mtJAK1 (S729C) expressing cell line is created by transducing Ba/F3 cells (Murine pro-B-cells) with a retrovirus expressing human mtJAK1 (S729C)-pQCXIN vector DNA. Single cell cloning is performed to select Ba/F3 cells expressing highest levels of mtJAK1 (S729C) by serial dilution. BaF3 mutant JAK-1 (S729C) suspension cells are cultured and maintained in (Gibco RPMI 1640 cat# A10491-01) containing 10% Hi-FBS (Hyclone cat#10082-047), 1 μg/ml puromycin dihydrochloride (Sigma cat#9620), 1.0 mg/mL G418 sulfate (Corning ref#30-234-CI), referred to as R10+ from now on.
Proliferation assays are performed in culture medium without selection and from now on will be referred to as (R10−). Briefly, cultured cells are decanted, centrifuged and reconstituted in 10 mL of R10− and counted using a Beckman Coulter Vi-Cell. Cells are further diluted to 2e4/mL in R10− and plated in a 96 well white opaque assay plates (Costar cat#3610) at 1×10^3 cells (50 μls) per well. […] Luminescence is then read on a Perkin Elmer Victor2 using a preset program for luminescence at 0.1 second. […]

Sequence of JAK2 (O60674 whole entry): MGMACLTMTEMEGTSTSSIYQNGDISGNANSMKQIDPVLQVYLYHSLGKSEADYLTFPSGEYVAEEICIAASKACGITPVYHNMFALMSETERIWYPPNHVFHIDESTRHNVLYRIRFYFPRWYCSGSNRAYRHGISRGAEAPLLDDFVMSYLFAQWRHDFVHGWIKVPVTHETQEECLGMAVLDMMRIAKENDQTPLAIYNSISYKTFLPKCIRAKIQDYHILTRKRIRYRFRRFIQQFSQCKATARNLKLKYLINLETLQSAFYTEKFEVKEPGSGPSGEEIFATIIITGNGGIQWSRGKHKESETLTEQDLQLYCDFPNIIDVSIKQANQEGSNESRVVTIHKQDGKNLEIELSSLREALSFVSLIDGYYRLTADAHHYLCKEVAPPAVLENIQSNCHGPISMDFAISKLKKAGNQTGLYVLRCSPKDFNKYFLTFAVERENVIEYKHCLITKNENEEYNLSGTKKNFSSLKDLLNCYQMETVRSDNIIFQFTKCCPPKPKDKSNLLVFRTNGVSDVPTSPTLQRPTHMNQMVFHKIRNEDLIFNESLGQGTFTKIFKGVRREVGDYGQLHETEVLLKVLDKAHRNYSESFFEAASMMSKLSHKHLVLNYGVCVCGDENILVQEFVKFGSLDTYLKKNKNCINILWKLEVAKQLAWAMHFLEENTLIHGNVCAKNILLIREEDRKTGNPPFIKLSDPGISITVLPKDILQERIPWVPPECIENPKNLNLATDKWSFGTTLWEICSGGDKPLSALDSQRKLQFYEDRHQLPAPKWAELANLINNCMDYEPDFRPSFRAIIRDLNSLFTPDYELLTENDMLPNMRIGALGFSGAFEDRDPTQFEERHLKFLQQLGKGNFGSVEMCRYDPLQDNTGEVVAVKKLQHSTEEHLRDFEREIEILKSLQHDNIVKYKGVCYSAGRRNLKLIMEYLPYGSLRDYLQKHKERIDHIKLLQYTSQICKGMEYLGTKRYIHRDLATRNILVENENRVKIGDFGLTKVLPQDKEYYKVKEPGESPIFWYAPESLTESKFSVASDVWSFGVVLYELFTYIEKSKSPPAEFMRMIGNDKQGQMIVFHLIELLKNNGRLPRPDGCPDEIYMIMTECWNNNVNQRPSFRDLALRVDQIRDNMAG
Sequence of JAK1 (P23458 whole entry): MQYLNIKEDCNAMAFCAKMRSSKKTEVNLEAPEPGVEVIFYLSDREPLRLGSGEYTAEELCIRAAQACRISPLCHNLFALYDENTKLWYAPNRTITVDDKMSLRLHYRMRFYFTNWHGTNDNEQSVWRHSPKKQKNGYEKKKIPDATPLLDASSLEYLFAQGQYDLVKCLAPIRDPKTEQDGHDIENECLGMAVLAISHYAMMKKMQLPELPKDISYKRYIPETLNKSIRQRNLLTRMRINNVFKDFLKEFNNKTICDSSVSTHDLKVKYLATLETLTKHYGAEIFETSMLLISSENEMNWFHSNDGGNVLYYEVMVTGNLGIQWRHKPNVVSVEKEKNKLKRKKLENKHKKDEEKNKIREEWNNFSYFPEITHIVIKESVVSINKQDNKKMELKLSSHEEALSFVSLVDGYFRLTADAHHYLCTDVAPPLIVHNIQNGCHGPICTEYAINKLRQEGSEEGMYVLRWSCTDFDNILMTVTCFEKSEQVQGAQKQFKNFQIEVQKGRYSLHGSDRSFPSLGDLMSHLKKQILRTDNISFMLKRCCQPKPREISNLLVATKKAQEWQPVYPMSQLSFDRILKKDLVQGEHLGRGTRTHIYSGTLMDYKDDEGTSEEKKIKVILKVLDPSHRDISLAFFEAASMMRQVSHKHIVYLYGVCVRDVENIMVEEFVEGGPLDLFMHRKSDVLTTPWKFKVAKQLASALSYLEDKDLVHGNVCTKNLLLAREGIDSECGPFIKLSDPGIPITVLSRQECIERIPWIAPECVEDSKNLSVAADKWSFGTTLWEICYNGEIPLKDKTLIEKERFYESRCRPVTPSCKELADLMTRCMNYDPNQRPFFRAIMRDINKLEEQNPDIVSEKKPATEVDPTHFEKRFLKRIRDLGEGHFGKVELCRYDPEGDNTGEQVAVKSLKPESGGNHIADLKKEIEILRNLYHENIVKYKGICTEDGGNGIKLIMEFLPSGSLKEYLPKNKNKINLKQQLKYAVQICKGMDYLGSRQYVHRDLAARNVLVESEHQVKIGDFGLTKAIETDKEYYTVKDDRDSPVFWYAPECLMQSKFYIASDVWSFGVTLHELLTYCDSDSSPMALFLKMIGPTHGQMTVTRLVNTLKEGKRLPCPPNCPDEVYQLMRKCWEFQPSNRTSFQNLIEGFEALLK

IC50 (JAK1): 4 ± 0.8 nM
IC50 (JAK2): 557 ± 337 nM
IC50 [1]: 956 nM
Structure (SMILES): Cc1cc(Nc2cc(O[C@H]3CC[C@@H](NC[C@@H](O)C(F)(F)F)CC3)cc3c2ncn3C)nn1C [Example 1, (2R)-3-{[cis-4-({4-[(1,5-Dimethyl-1H-pyrazol-3-yl)amino]-1-methyl-1H-benzimidazol-6-yl}oxy)cyclohexyl]amino}-1,1,1-trifluoropropan-2-ol]
tumor growth inhibition (HCC827 xenograft tumor; 30 mg/kg BID): 31%
tumor regression (HCC827 xenograft tumor; 60 mg/kg BID): 22%
tumor regression (HCC827 xenograft tumor; 120 mg/kg QD): 22%
